Assay [1] has as its system L. major promastigotes. In words: L. major promastigote drug susceptibility assay (alamar blue, 384-well). It is filed as cell-based, Leishmania major. On the procedure:
Promastigotes were grown in vented T75 tissue culture flasks and maintained at 28°C. Promastigote cultures were initiated at 10^5 parasites per mL and subcultured every 3–4 days. L. major promastigote counts were performed in duplicate using a hemocytometer and particle counter (Beckman Coulter, Fullerton, CA). For HTS assays, L. major promastigote cultures were harvested during exponential growth phase (∼2.0–3.0×10^7 parasites/mL) and were not maintained past passage 20.
The final test compound concentration was 10 µM with a constant DMSO concentration of 1% in each assay well.
The L. major promastigote drug susceptibility assay was performed in a final volume of 25 µL using our previously described 384-well microtiter plate format,[39]. For automated HTS procedures, L. major promastigotes (5,000 parasites/22 µL) in complete growth medium were seeded into each well of the microtiter plates using a MAPC2 bulk dispenser (Titertek, Huntsville, AL). Test and control compounds (3 µL) were added to individual wells using a Velocity 11 V-prep (Menlo Park, CA) liquid handling system, equipped with a 384-well dispensing head, followed by centrifugation at 50 g for 1 min. […] Assay plates were allowed to incubate for 44 h at 28°C in the presence of 5% CO2. Five µL of alamar blue reagent were added to each assay plate well and incubated for 4 h at 28°C with 5% CO2. Data were captured on a Molecular Devices SpectraMax M5 (excitation560; emission590). Individual assay plate Z-factors were derived from the vehicle and positive controls, and data from plates were used only if Z-factors were >0.5 [50].
The assays were performed in duplicate with a final 10-point concentration range spanning 0.01–5.00 µM.
On the technique in general: Resazurin is reduced to fluorescent resorufin, in cell work by metabolically active cells.

The subject of assay [2] is L. major axenic amastigote-like population. Briefly: L. major axenic amastigote-like alamar blue assay (pH 4.9). It is filed as cell-based, Leishmania major. Conditions: for growth inhibitory activity in axenic amastigote-like assay: pH 4.9.
The next assay concerns A549. In words: Mammalian cell line specificity assay (alamar blue). Type of assay: cell-based, human. On the procedure:
(§1) Mammalian cells were cultured and maintained according to ATCC specifications (ATCC, Manassas, VA). Cell line drug susceptibility assays were performed in final volumes of 25 µL using our previously described 384-well microtiter plate format,[39]. […] Test and control compounds were added to individual wells as described above. Vehicle and positive controls were 1% DMSO and 10% DMSO, respectively (final well concentrations). Assay plates were incubated for 44–46 h at 37°C in the presence of 5% CO2 and growth inhibitory effects were determined as described above. Five µL of alamar blue reagent was added to each well and incubated for 2–4 h. Data were captured as described above.

For the next assay, the system named is HeLa. Described as above. Particulars: 44–46 h, alamar blue, read-out: HeLa EC50 (AVE±SD). Type of assay: cell-based, human. On the procedure:
as §1

The next assay concerns IMR-90. The description is as above. Type of assay: cell-based, human. Conditions: 44–46 h, alamar blue, read-out: IMR90 EC50 (AVE±SD). How it is done: as §1
In the next assay the test system is MDA-MB-231. Described as above. It is filed as cell-based, human. Conditions: 44–46 h, alamar blue, read-out: MDA EC50 (AVE±SD). On the procedure:
as §1

For the next assay, the system named is PC-3. The description is as above. Type of assay: cell-based, human. Conditions: 44–46 h, alamar blue, read-out: PC-3 EC50 (AVE±SD). How it is done:
as §1

The next assay deals with L. major. In words: In vivo murine CL efficacy study (footpad lesion model). Set-up: species or system Balb/c mice. Particulars: for decrease in footpad thickness: 40 mg/kg; for reduction in footpad thickness: 160 mg/kg, vs vehicle. How it is done: Adult female Balb/c mice (6 to 10 week old) were obtained from (Charles River Laboratories, Wilmington, MA) and maintained as outlined by the National Institutes of Health Guide for the Care and Use of Laboratory Animals. All in vivo studies were carried out in accordance with protocols approved by the Institutional Animal Care and Use Committee (IACUC) at the University of Miami (IACUC number C01-08). Food and water were supplied ad libitum. […] Animals were examined daily to determine lesion development. […] Control mice were injected with an equivalent amount of vehicle control or amphotericin B (12.5 mg/kg). […] Mice were euthanized in a CO2 chamber at day 21.

The test system of assay [3] is L. major promastigotes. Briefly: Flow cytometer-based growth inhibition and cytotoxicity assay. Conditions: 48 h, read-out: L. major promastigote EC50 (AVE±SD) Confirmation Flow Cytometry. A general note: A flow cytometer gives signals particle by particle.
Where [4] appears, read: Leishmania major, 48 h, compounds from commercial supplier, 44 h + 4 h alamar blue, 28°C, read-out: L. major promastigote EC50 (AVE±SD) Confirmation Alamar Blue.
Where [5] appears, read: Leishmania major, pH 4.9, 144 h, 32°C, read-out: L. major axenic amastigote-like EC50 (AVE±SD) Confirmation Alamar Blue.
Where [6] appears, read: Homo sapiens, A549, 44–46 h, alamar blue, read-out: A549 EC50 (AVE±SD).
[7] abbreviates: Leishmania major, Table S1, PMLSC library samples, 10-point 0.01–5.00 µM, read-out: EC50 Ave ± SD, Lm.
[8] abbreviates: Homo sapiens, A549, Table S1, PMLSC library samples, read-out: EC50 Ave ± SD, A549.

Where two headings read alike, the source gives them in different places.

As usually defined, the EC50 is the concentration giving half of the maximal effect. As to `C[C@@H]1[C@H](O)[C@@H](C)/C=C/C=C/C=C/C=C/C=C/C=C/C=C/[C@H](O[C@@H]2O[C@H](C)[C@@H](O)[C@H](N)[C@@H]2O)C[C@@H]2O[C@](O)(C[C@@H](O)C[C@@H](O)[C@H](O)CC[C@@H](O)C[C@@H](O)CC(=O)O[C@H]1C)C[C@H](O)[C@H]2C(=O)O` [Amphotericin B, reference compound], the EC50 was 210 ± 10 nM in the assay with L. major promastigotes [1] (setting [4]); 207 ± 11 nM in the assay with L. major promastigotes [1] (Leishmania major, assay optimization, read-out: EC50, L. major promastigotes, 384-well format); 380 ± 10 nM in assay [2] (setting [5]); above 50000 nM in the assay with A549 (setting [6]); above 50000 nM in the assay with HeLa (Homo sapiens, HeLa); 8700 ± 2400 nM in the assay on IMR-90 (Homo sapiens, IMR-90). For the same molecule, the concentration giving a half-maximal response (EC50) in the assay on MDA-MB-231 (Homo sapiens, MDA-MB-231) is above 50000 nM; in the assay on PC-3 (Homo sapiens, PC-3), above 50000 nM; in the assay on L. major promastigotes [3] (Leishmania major) it was 190 ± 60 nM. Also, the “reduction in footpad swelling (in vivo effects, summary)” value with L. major (summary statement in results/discussion) is 85–90%.
Regarding `C[C@@]1(CO)[C@H](O)CC[C@@]2(C)[C@H]1CC[C@H]1C[C@@H]3C[C@@]12CC[C@]3(O)CO` [Aphidicolin, reference compound], the 50% effective concentration (EC50) was 220 ± 20 nM with L. major promastigotes [1] (setting [4]); 121 ± 20 nM in the assay with L. major promastigotes [1] (setting [7]); 50 ± 10 nM in assay [2] (setting [5]); above 50000 nM in the assay with A549 (setting [6]); above 5000 nM in the assay on A549 (setting [8]); above 50000 nM with HeLa (Homo sapiens, HeLa). In addition, the EC50 in the assay with IMR-90 (Homo sapiens, IMR-90) is above 50000 nM; in the assay with MDA-MB-231 (Homo sapiens, MDA-MB-231) it was above 50000 nM; with PC-3 (Homo sapiens, PC-3), above 50000 nM; in the assay with L. major promastigotes [3] (Leishmania major) it was 390 ± 110 nM. Moreover, the “growth inhibitory activity in axenic amastigote-like assay” value in assay [2] is recorded as “comparable to amphotericin B”.
With `CCN(CC)C(=S)SSC(=S)N(CC)CC` [Disulfiram], the EC50 in the assay on L. major promastigotes [1] (setting [4]) was 500 ± 50 nM; with L. major promastigotes [1] (setting [7]), 263 ± 20 nM; in assay [2] (setting [5]), 130 ± 10 nM; in the assay on A549 (setting [6]), above 50000 nM; in the assay on A549 (setting [8]), 2160 ± 1220 nM; with HeLa (Homo sapiens, HeLa) it was above 50000 nM. Also, the 50% effective concentration (EC50) in the assay with IMR-90 (Homo sapiens, IMR-90) is above 50000 nM; in the assay on MDA-MB-231 (Homo sapiens, MDA-MB-231), above 50000 nM; with PC-3 (Homo sapiens, PC-3) it was above 50000 nM; with L. major promastigotes [3] (Leishmania major), 190 ± 60 nM. Moreover, the “growth inhibitory activity in axenic amastigote-like assay” value in assay [2] is “comparable to amphotericin B”. Moreover, the “decrease in footpad thickness” value came out at 25% in the assay with L. major (day 14) and 35% in the assay with L. major (day 21). Also, the “reduction in footpad thickness” value is reported as around 43% in the assay on L. major (day 14 post-infection) and 50% in the assay with L. major (day 21 post-infection).
In the case of `CN(C)CCOc1ccccc1Cc1ccccc1` [Phenytoloxamine, reference compound], the EC50 with L. major promastigotes [1] (Leishmania major, read-out: EC50 Ave ± SD, Lm) was 502 ± 87 nM; in [2] (Leishmania major, 144 h, pH 4.9, read-out: L. major axenic amastigote-like EC50 (AVE±SD) Confirmation Alamar Blue), above 50000 nM; in the assay with A549 (setting [6]), above 50000 nM; with A549 (setting [8]) it was above 5000 nM; with HeLa (Homo sapiens, HeLa), above 50000 nM; with IMR-90 (Homo sapiens, IMR-90) it was above 50000 nM. Also, the EC50 in the assay with MDA-MB-231 (Homo sapiens, MDA-MB-231) was above 50000 nM; in the assay on PC-3 (Homo sapiens, PC-3), above 50000 nM; in the assay with L. major promastigotes [3] (Leishmania major) it was 300 ± 30 nM.
Turning to “Pentamidine Isethionate [reference compound]”, the concentration for a half-maximal effect (EC50) was 46 ± 12 nM in the assay on L. major promastigotes [1] (read-out: EC50 Ave ± SD, Lm, Table S1, PMLSC library samples, 10-point 0.01–5.00 µM); 1260 ± 40 nM in [2] (read-out: L. major axenic amastigote-like EC50 (AVE±SD) Confirmation Alamar Blue, pH 4.9, 144 h, 32°C); above 50000 nM with A549 (read-out: A549 EC50 (AVE±SD), 44–46 h, alamar blue); above 5000 nM in the assay on A549 (read-out: EC50 Ave ± SD, A549, Table S1, PMLSC library samples); above 50000 nM in the assay with HeLa; above 50000 nM in the assay with IMR-90. For the same molecule, the EC50 in the assay on MDA-MB-231 is above 50000 nM; in the assay on PC-3, above 50000 nM; with L. major promastigotes [3] (28°C, ViaCount, 0.1–50 µM) it was 730 ± 390 nM. Moreover, the “primary hit (≥50% inhibition of signal readout)” value in the assay with L. major promastigotes [1] (single concentration 10 µM, LOPAC, UP-CMLD DP validation set or PMLSC library) is “primary hits”.

Source of the values: article PMC2765639 (PLoS Neglected Tropical Diseases, 2009).
